According to patent US20250304537A1 (Repare Therapeutics Inc., priority 2022, published 2025):
Like-named read-outs stand apart in the source and are kept apart here.

Key:
[1] = biological target: recombinant human Myt1 (full length PKMYT1) (Homo sapiens (Human), UniProt Q99640); test: Recombinant human Myt1 kinase assay (ADP-Glo); assay type: biochemical; conditions: 10 μM ATP
Procedure, shortened: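 ADP-Glo luminescence measured ATP hydrolysis by recombinant full-length PKMYT1 (18 nM) after 60 min at 30 °C with 10 μM ATP. Compounds in 0.5% DMSO were added to the enzyme 15 min before ATP, at 22 °C, in HEPES/MgCl2/MnCl2 buffer. IC50 and percent maximal inhibition were derived.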

[2] = system: PKMYT1 (CDK1 pThr14) in FUOV1 cells; test: PKMYT1 cell-based activity assay, CDK1 pThr14 AlphaLISA in FUOV1 cells; conditions: read-out: FUOV-1 CDK1 pThr14 IC50
Procedure, shortened: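 IC50 was derived from AlphaLISA signal (excitation 680 nm, emission 615 nm) for phospho-Thr14 CDK1 in lysates. The detection antibodies were rabbit anti-pThr14 and mouse anti-total CDK1, each at 5 nM. FUOV1 ovarian cells were exposed to compound for 2 hours before lysis.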

Chain of recombinant human Myt1 (full length PKMYT1) (Q99640 whole entry): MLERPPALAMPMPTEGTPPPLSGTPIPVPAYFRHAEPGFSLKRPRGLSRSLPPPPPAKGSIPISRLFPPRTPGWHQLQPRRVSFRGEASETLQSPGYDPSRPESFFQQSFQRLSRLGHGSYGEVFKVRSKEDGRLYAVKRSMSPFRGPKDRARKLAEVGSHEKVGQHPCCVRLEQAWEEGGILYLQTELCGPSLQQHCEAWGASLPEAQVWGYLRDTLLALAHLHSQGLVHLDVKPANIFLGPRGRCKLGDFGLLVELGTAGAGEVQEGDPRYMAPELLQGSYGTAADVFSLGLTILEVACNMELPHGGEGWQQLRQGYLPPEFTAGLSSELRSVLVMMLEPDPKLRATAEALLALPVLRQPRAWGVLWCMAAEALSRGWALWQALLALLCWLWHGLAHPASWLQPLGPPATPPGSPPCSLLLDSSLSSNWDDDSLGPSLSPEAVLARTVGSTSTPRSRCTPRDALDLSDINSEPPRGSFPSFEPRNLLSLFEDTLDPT

| SMILES | IC50 [1] [nM] | IC50 ([2]; 2 h, 2 h compound incubation) [nM] | IC50 ([2]; 2 h, 2 h incubation) [nM] | IC50 ([2]; 2 h, 2 hours with compound) [nM] | IC50 ([2]; 2 h incubation) [nM] |
| --- | --- | --- | --- | --- | --- |
| Cc1ccc2[nH]ncc2c1-c1nc(-c2ccc(F)cc2Nc2ccnc(C(C)C)c2)nc(C(N)=O)c1N [Compound 619] | 6 | 277 | – | – | – |
| Cc1ccc(O)c(C)c1-c1cc(-c2cncs2)nc(C(N)=O)c1N [Compound 82] | 7 | – | 107 | – | – |
| Cc1ccc2[nH]ncc2c1-c1nc(-c2cc(F)cnc2NC2CCOC(C(F)(F)F)C2)nc(C(N)=O)c1N (stereo not shown) [Compound 873] | 19 | – | – | 862 | – |
| COCC(COC)Oc1nccc(-c2cc(-c3c(C)ccc4[nH]ncc34)c(N)c(C(N)=O)n2)n1 [Compound 207] | 9 | – | 144 | – | – |
| CC1(C(=O)Nc2cc(F)c(F)cc2-c2nc(C(N)=O)c(N)c(-c3c(Cl)ccc4[nH]ncc34)n2)CC1 [Compound 459] | 9 | 44 | – | – | – |
| Cc1ccc2[nH]ncc2c1-c1nc(-c2ccc(C(=O)O)cc2)nc(C(N)=O)c1N [Compound 146] | 23 | – | > 10000 | – | – |
| Cc1ccc(O)c(C)c1-c1cc(-c2cnccn2)nc(C(N)=O)c1N [Compound 26] | 3 | – | 76 | – | – |
| Cc1ccc2[nH]ncc2c1-c1nc(-c2ccccc2NC(=O)C2CC2)nc(C(N)=O)c1N [Compound 397] | 4 | 13 | – | – | – |
| Cc1ccc2[nH]ncc2c1-c1cc(-c2ccnc(OCc3ncccn3)n2)nc(C(N)=O)c1N [Compound 251] | 3 | – | – | – | 46 |
| CCCc1ccccc1-c1nc(C(N)=O)c(N)c(-c2c(C)ccc3[nH]ncc23)n1 [Compound 796] | 15 | – | – | 781 | – |
| Cc1ccc2[nH]ncc2c1-c1nc(-c2ccccc2NC(C)C)nc(C(N)=O)c1N [Compound 419] | 4 | 49 | – | – | – |
| COc1cccnc1Nc1cc(F)ccc1-c1nc(C(N)=O)c(N)c(-c2c(C)ccc3[nH]ncc23)n1 [Compound 614] | 10 | 37 | – | – | – |
| Cc1ccc2[nH]ncc2c1-c1nc(-c2ccccc2NC(=O)[C@]2(C)CCCN2)nc(C(N)=O)c1N [Compound 422] | 19 | 373 | – | – | – |
| Cc1ccc2[nH]ncc2c1-c1nc(-c2cccnc2NC(=O)C(C)(C)C)nc(C(N)=O)c1N [Compound 805, 5-amino-6-(5-methyl-1H-indazol-4-yl)-2-(2-pivalamidopyridin-3-yl)pyrimidine-4-carboxamide] | 3 | – | – | 71 | – |
| Cc1ccc2[nH]ncc2c1-c1nc(-c2cccnc2Nc2cccnc2C)nc(C(N)=O)c1N [Compound 623] | 4 | 179 | – | – | – |
| Cc1ccc2[nH]ncc2c1-c1nc(-c2cn(CC3CC3)nc2NC2CCOCC2)nc(C(N)=O)c1N [Compound 892] | 15 | – | – | 589 | – |
| Cc1cc(F)c2[nH]ncc2c1-c1nc(-c2cn(C)nc2NC2CCOCC2)nc(C(N)=O)c1N [Compound 903, 5-amino-6-(7-fluoro-5-methyl-1H-indazol-4-yl)-2-(1-methyl-3-((tetrahydro-2H-pyran-4-yl)amino)-1H-pyrazol-4-yl)pyrimidine-4-carboxamide] | 4 | – | – | 195 | – |
| Cc1ccc2[nH]ncc2c1-c1cc(-c2cccc(OCc3cncnc3)n2)nc(C(N)=O)c1N [Compound 262] | 7 | – | 507 | – | – |
| Cc1ccc2[nH]ncc2c1-c1cc(-c2ccnnc2)nc(C(N)=O)c1N [Compound 86] | 58 | – | – | – | 945 |
| Cc1ccc2[nH]ncc2c1-c1cc(-c2cccc(OCc3ccnnc3)n2)nc(C(N)=O)c1N [Compound 326] | 5 | – | 134 | – | – |
| Cc1ccc2[nH]ncc2c1-c1nc(-c2cccc3c2NC(=O)C32CC2)nc(C(N)=O)c1N [Compound 399] | 17 | 143 | – | – | – |
| Cc1cccc(-c2nc(C(N)=O)c(N)c(-c3c(C)ccc4[nH]ncc34)n2)c1 [Compound 101] | 26 | – | 570 | – | – |
| Cc1ccc2[nH]ncc2c1-c1nc(-c2cccnc2NC[C@@H]2CCOC2)nc(C(N)=O)c1N [Compound 602] | 4 | 29 | – | – | – |
